From patent US9932637B2, “Genetic polymorphisms associated with cardiovascular disorders and drug response, methods of detection and uses thereof” (CELERA CORPORATION, priority 2003, dated 2018)
Values joined by “and” are separate entries in the source; they are usually repeats but may differ in a detail not shown here. Equal entries are not always repeated.

Test system: patients with prior myocardial infarction (CARE study)
Test: CARE aligned analysis (prospective and case/control design, white males): association of genotypes with pravastatin efficacy (Tables 13, 15)
Type: in vivo, human
Procedure: The data presented in Table 8 based on an association of genotypes with pravastatin efficacy of the CARE samples were further analyzed and presented in Table 13. The further analysis was performed to align the data obtained from the analysis of the CARE samples, which was a prospective study, to the analysis of the WOSCOP samples, which was a case/control study. Table 13 also presents an analysis of the association of genotypes with pravastatin efficacy in the WOSCOPs samples. Relative to the analysis performed on the data presented in Table 8, there are two significant differences to determine if the SNP influenced pravastatin efficacy. Data obtained from the CARE samples were separated by study design into two groups, those in the prospective study design group and those in the case/control study design group. The original care study contained 16 protocol defined cardiovascular disease defined endpoints and 150 other phenotypes. […] The control groups used to compare the data were also divided into two groups, the “all possible” control group and the “cleaner” control group. […] Because the participants in the WOSCOPs trial were all white males, only data obtained from white males in the CARE study were analysed. Data from the “all possible” and “cleaner” controls were compared to data obtained from the cases in the prospective study design while only data from “cleaner” controls were compared to cases in the case/control study design. The data from the case/control cohorts were analysed using conditional logistic regression (as opposed to logistic regression used for the original anaylsis).
The anaylsis was refined as described for both Tables 13 and 14.

[1] = A2M hCV517658, CARE Case/Control, F&NF MI
[2] = ABCA1 hCV2741051, CARE Case/Control, F&NF MI
[3] = ABCA1 hCV2741051, CARE Prospective, F&NF MI
[4] = ABCA1 hCV2741083, CARE Prospective, F&NF MI
[5] = ADAM12 hCV25928135, CARE Case/Control, F&NF MI
[6] = AGTR1 hCV3187716, CARE, Case/Control, F MI/SD/NF MI
[7] = AGTR1 hCV3187716, CARE, Prospective, F MI/SD/NF MI
[8] = ALOX12 hCV1552894, CARE Prospective, F&NF MI
[9] = ALOX12 hCV1552900, CARE Prospective, F&NF MI
[10] = ASAH1 hCV2442143, CARE, Prospective, F MI/SD/NF MI
[11] = C14orf159 hCV25472345, CARE Case/Control, F&NF MI
[12] = C14orf159 hCV25472345, CARE Prospective, F&NF MI
[13] = CAPG hCV15851292, CARE, Case/Control, F MI/SD/NF MI
[14] = CAPN10 hCV25614016, CARE, Case/Control, F MI/SD/NF MI, listed as Pravastatin
[15] = CAPN10 hCV25614016, CARE, Prospective, F MI/SD/NF MI

CC[C@H](C)C(=O)O[C@H]1C[C@H](O)C=C2C=C[C@H](C)[C@H](CC[C@@H](O)C[C@@H](O)CC(=O)O)[C@H]21 [pravastatin]
2 Rare Alleles (%), Pravastatin Patients [1]: (7.6%)
2 Rare Alleles n/total, Pravastatin Patients [1]: 11/144 and 11/101
Pravastatin vs placebo odds ratio, 0 rare alleles [1]: 0.55 and 0.53
Pravastatin vs placebo odds ratio, 1 rare allele [1]: 1.04 and 0.93
Pravastatin vs placebo odds ratio, 2 rare alleles [1]: 0.47 and 0.38
2 Rare Alleles n/total, Pravastatin Patients [2]: 12/93 and 12/64
Pravastatin vs placebo odds ratio, 0 rare alleles [2]: 0.55 and 0.52
Pravastatin vs placebo odds ratio, 1 rare allele [2]: 0.98 and 0.82
Pravastatin vs placebo odds ratio, 2 rare alleles [2]: 1.71 and 1.81
2 Rare Alleles n/total, Pravastatin Patients [3]: 12/94 and 12/65
Pravastatin vs placebo odds ratio, 0 rare alleles [3]: 0.55 and 0.52
Pravastatin vs placebo odds ratio, 1 rare allele [3]: 0.99 and 0.83
Pravastatin vs placebo odds ratio, 2 rare alleles [3]: 1.80 and 1.81
2 Rare Alleles n/total, Pravastatin Patients (ABCA1 hCV2741083, CARE Case/Control, F&NF MI): 4/22 and 4/18
2 Rare Alleles n/total, Pravastatin Patients [4]: 4/23 and 4/19
Pravastatin vs placebo odds ratio, 0 rare alleles [4]: 0.63
Pravastatin vs placebo odds ratio, 1 rare allele [4]: 1.52
Pravastatin vs placebo odds ratio, 2 rare alleles [4]: 2.74
Pravastatin vs. Placebo Odds Ratio (ABCA1 hCV2741083, Patients with 0 Rare Alleles, CARE Case/Control, F MI/SD/NF MI): 0.60
Pravastatin vs. Placebo Odds Ratio (ABCA1 hCV2741083, Patients with 0 Rare Alleles, CARE Prospective, F MI/SD/NF MI): 0.59
Pravastatin vs. Placebo Odds Ratio (ABCA1 hCV2741083, Patients with 1 Rare Allele, CARE Case/Control, F MI/SD/NF MI): 1.53
Pravastatin vs. Placebo Odds Ratio (ABCA1 hCV2741083, Patients with 1 Rare Allele, CARE Prospective, F MI/SD/NF MI): 1.61
Pravastatin vs. Placebo Odds Ratio (ABCA1 hCV2741083, Patients with 2 Rare Alleles, CARE Case/Control, F MI/SD/NF MI): 0.71
Pravastatin vs. Placebo Odds Ratio (ABCA1 hCV2741083, Patients with 2 Rare Alleles, CARE Prospective, F MI/SD/NF MI): 0.53
2 Rare Alleles (%), Pravastatin Patients [5]: (17.1%)
2 Rare Alleles n/total, Pravastatin Patients [5]: 7/58 and 7/41
Pravastatin vs placebo odds ratio, 2 rare alleles [5]: 0.47 and 0.37
Pravastatin vs. Placebo Odds Ratio (ADAMTS1 hCV529706, Patients with 0 Rare Alleles, CARE Case/Control, F MI/SD/NF MI): 0.91
Pravastatin vs. Placebo Odds Ratio (ADAMTS1 hCV529706, Patients with 1 Rare Allele, CARE Case/Control, F MI/SD/NF MI): 0.64
Pravastatin vs. Placebo Odds Ratio (ADAMTS1 hCV529706, Patients with 2 Rare Alleles, CARE Case/Control, F MI/SD/NF MI): 0.20
Pravastatin vs. Placebo Odds Ratio (ADAMTS1 hCV529710, Patients with 0 Rare Alleles, CARE Case/Control, F MI/SD/NF MI): 0.91
Pravastatin vs. Placebo Odds Ratio (ADAMTS1 hCV529710, Patients with 1 Rare Allele, CARE Case/Control, F MI/SD/NF MI): 0.63
Pravastatin vs. Placebo Odds Ratio (ADAMTS1 hCV529710, Patients with 2 Rare Alleles, CARE Case/Control, F MI/SD/NF MI): 0.20
2 rare alleles n/total (%), pravastatin patients [6]: (7.5%)
Pravastatin vs placebo odds ratio, 0 rare alleles [6]: 0.65
Pravastatin vs placebo odds ratio, 1 rare allele [6]: 1.03
Pravastatin vs placebo odds ratio, 2 rare alleles [6]: 0.26
2 rare alleles n/total (%), pravastatin patients [7]: (7.2%)
Pravastatin vs placebo odds ratio, 0 rare alleles [7]: 0.65
Pravastatin vs placebo odds ratio, 1 rare allele [7]: 1.02
Pravastatin vs placebo odds ratio, 2 rare alleles [7]: 0.23
Pravastatin vs. Placebo Odds Ratio (AGTR1 hCV3187716, Patients with 0 Rare Alleles, CARE Prospective, F MI/SD/NF MI): 0.70
Pravastatin vs. Placebo Odds Ratio (AGTR1 hCV3187716, Patients with 1 Rare Allele, CARE Prospective, F MI/SD/NF MI): 1.18
Pravastatin vs. Placebo Odds Ratio (AGTR1 hCV3187716, Patients with 2 Rare Alleles, CARE Prospective, F MI/SD/NF MI): 0.27
2 Rare Alleles (%), Pravastatin Patients [8]: (7.6%)
2 Rare Alleles n/total, Pravastatin Patients [8]: 15/198
Pravastatin vs placebo odds ratio, 2 rare alleles [8]: 0.38
2 Rare Alleles (%), Pravastatin Patients [9]: (7.6%)
2 Rare Alleles n/total, Pravastatin Patients [9]: 15/198
Pravastatin vs placebo odds ratio, 2 rare alleles [9]: 0.38
2 rare alleles n/total (%), pravastatin patients [10]: (13.2%)
Pravastatin vs placebo odds ratio, 0 rare alleles [10]: 0.42
Pravastatin vs placebo odds ratio, 1 rare allele [10]: 0.78
Pravastatin vs placebo odds ratio, 2 rare alleles [10]: 1.16
2 Rare Alleles (%), Pravastatin Patients [11]: (5.0%)
2 Rare Alleles n/total, Pravastatin Patients [11]: 7/140
Pravastatin vs placebo odds ratio, 2 rare alleles [11]: 0.30
2 Rare Alleles (%), Pravastatin Patients [12]: (5.0%)
2 Rare Alleles n/total, Pravastatin Patients [12]: 7/140
Pravastatin vs placebo odds ratio, 2 rare alleles [12]: 0.30
2 rare alleles n/total (%), pravastatin patients [13]: (21.4%)
Pravastatin vs placebo odds ratio, 0 rare alleles [13]: 0.81
Pravastatin vs placebo odds ratio, 1 rare allele [13]: 0.37
Pravastatin vs placebo odds ratio, 2 rare alleles [13]: 5.35
Pravastatin vs placebo odds ratio, 2 rare alleles (CAPN10 hCV25614016, CARE, Case/Control, F MI/SD/NF MI): 0.90
Pravastatin vs placebo odds ratio, 0 rare alleles [14]: 0.62 and 0.56
Pravastatin vs placebo odds ratio, 1 rare allele [14]: 1.58 and 1.43
Pravastatin vs placebo odds ratio, 2 rare alleles [14]: 1.07
2 rare alleles n/total (%), pravastatin patients [15]: (9.1%)
Pravastatin vs placebo odds ratio, 0 rare alleles [15]: 0.63 and 0.56
Pravastatin vs placebo odds ratio, 1 rare allele [15]: 1.60 and 1.42
